Two molecules from US7169567B1, “Screening assay utilizing the PTH receptor” (The General Hospital Corporation, priority 1998, dated 2007) can be followed below.

Entries after “also recorded” stand apart in the source; their conditions may differ. Where no end group is shown, it is not given here.

What all share (format): cell-based
The subject of experiment [1] is parental LLC-PK1 cells (no PTH receptors, endogenous calcitonin receptors). Description: cAMP response in untransfected parental LLC-PK1 cells. As to conditions: untransfected LLC-PK1 cells expressing calcitonin receptor but no PTH receptors. As to the method: FIG. 2. cAMP-stimulating Activity of PTH Fragments in LLC-PK1 Cells. A) Rat PTH(1–34) analog or amino-terminal rPTH fragments were tested for cAMP-stimulating activity in an LLC-P1-derived cell line (HKRK-B7) stably transfected with the human PTH-1 receptor. Cells were treated with peptide at the indicated doses for 60 min at 22° C. Intracellular cAMP was measured by RIA, as described in Experimental Procedures. Shown are combined data (mean±s.e.m.) from 3 separate experiments, each performed in duplicate. B) HKRK-B7 cells, or untransfected LLC-PK1 were treated with rPTH(1–34) or rPTH(1–14), and intracellular cAMP was measured. Shown are data (mean±s.e.m.) from a single representative experiment performed in duplicate.
Intracellular cyclic AMP: Transfected COS-7 or HKRK-B7 cells were rinsed with 500 ml of binding buffer, (50 mM Tris-HCl, pH 7.7, 100 mM NaCl, 5 mM KCl, 2 mM CaC12, 5% heat-inactivated horse serum, 0.5% heat-inactivated fetal bovine serum) and 200 ml of IBMX buffer (DMEM containing 2 mM IBMX, 1 mg/ml bovine serum albumin, 35 mM Hepes-NaOH, pH 7.4) and […] of binding buffer or binding buffer containing various amounts of peptide were added. The plates were incubated for 60 minutes at room temperature. […] After the thawing, the lysate was diluted 30-fold in dH20 and an aliquot was analyzed for cAMP content by determined radioimmunoassay using unlabeled cAMP as a standard. […]

The target in experiment [2] is T1, truncated rat PTH-1 receptor (rΔNt) (Rattus norvegicus, UniProt P25961, E586G).
T1 construct: contains an open reading frame encoding a protein of about 435 amino acid residues; expressed in transfected cells; host or cells: COS-7, transient (DEAE-dextran), pCDNA-1 based plasmid
T1 sequence (P25961 with tags, fused parts or gaps E586G): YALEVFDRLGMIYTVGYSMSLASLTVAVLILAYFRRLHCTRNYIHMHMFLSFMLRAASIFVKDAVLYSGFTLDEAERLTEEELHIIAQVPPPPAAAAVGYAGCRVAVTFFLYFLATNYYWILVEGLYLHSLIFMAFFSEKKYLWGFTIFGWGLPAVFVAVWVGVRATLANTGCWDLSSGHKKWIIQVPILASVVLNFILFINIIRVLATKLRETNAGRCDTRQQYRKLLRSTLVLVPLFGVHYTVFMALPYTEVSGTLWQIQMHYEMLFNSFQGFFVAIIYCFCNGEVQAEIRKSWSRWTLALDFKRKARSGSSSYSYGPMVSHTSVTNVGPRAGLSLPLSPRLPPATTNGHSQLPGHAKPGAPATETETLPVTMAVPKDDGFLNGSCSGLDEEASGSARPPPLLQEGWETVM
Briefly: cAMP response in COS-7 cells transiently transfected with truncated rat PTH-1 receptor (rΔNt). The note with it: for cAMP response of cells expressing rΔNt (in words): secretin(1–27) 1 mM. An excerpt: (§1) FIG. 4. PTH Responses of Intact and Truncated PTH-1 Receptors in COS-7 Cells. Shown at the top are schematics of the intact (A) and truncated (B) rat PTH-1 receptors used for transient transfection of COS-7 cells, and subsequent cAMP response assays. The conserved extracellular cysteine residues are depicted as open circles and numbered according to sequence position, and the nine amino acids of the epitope tag (HA) in rWT-HA are shaded. The tics at residue 26 and 181 indicate the endpoints of the deletion in rΔNt. Based on the predicted signal peptide cleavage site at Ala-22, residues 23–25 in rΔNt are joined to residue 182. The cAMP responses of COS-7 cells expressing the intact receptor (C) and rΔNt (D) to rPTH(1–34) (J) or rPTH(1–14) (C) are also shown. The graphs show combined data (mean±s.e.m.) from five separate experiments, each performed in duplicate. […]
(§2) FIG. 6. Specificity of the Truncated Ligand and PTH Receptor. COS-7 cells transiently transfected with either rWT-HA (A), rΔNt (B), or the intact rat secretin receptor (C), were treated with the indicated peptides for 60 min at 22° C., and the resulting intracellular cAMP levels were quantified by RIA. Concentration of peptides present during the incubations were: rPTH(1–34), 0.1 mM; rPTH(1–14) 100 mM; secretin(1–27). […] Shown are data (mean±s.e.m.) from one experiment performed in duplicate, and this was repeated twice more with equivalent results.
(§3) For studies with the intact and truncated rat PTH-1 receptors, transient transfections of COS-7 cells were performed using DEAE-dextran as described previously (Bergwitz, C., et al., J. Biol. Chem. 272:28861–28868)). The construction and initial characterization of the pCDNA-1 based plasmids encodin either the intact or truncated rat PTH-1 receptor has been described previously (Lee, C., et al., Endocrinology 135(4):1488–1495)). […] The truncated rat PTH-1 receptor (rΔNt) is deleted for exons E1 through exon G (residues 26 to 181). Assuming that signal peptidase cleavage occurs between Ala-22 and Tyr-23 (Nielsen, H., et al., Protein Engineering 10:1–6 (1997)), rΔNt is predicted to have for its N-terminus residues Dautzenberg, F., et al., Proc. Natl. Acad. Sci. 95:4941–4946 (1998); Holtmann, M., et al., J. Biol. Chem. 270:14394–14398 (1995); DeAlmeida, V. and Mayo, K., Mol. Endo. 12:750–765 (1998)) joined to Glu-182 (FIG. 3B). COS-7 cells were transfected in 24-well plates when the cells were 85 to 95% of confluency, using 200 ng of plasmid DNA that was purified by cesium chloride/ethidium bromide gradient centrifugation for each well. Assays were conducted 72 to 96 hours after transfection. Under these conditions about ˜20% of the COS-7 cells become transfected and express about 5×10^6 surface PTH receptors per cell (Bergwitz, C., et al., J. Biol. Chem. 272:28861–28868)).
(§4) Intracellular cyclic AMP: Transfected COS-7 or HKRK-B7 cells were rinsed with 500 ml of binding buffer, (50 mM Tris-HCl, pH 7.7, 100 mM NaCl, 5 mM KCl, 2 mM CaC12, 5% heat-inactivated horse serum, 0.5% heat-inactivated fetal bovine serum) and 200 ml of IBMX buffer (DMEM containing 2 mM IBMX, 1 mg/ml bovine serum albumin, 35 mM Hepes-NaOH, pH 7.4) and […] of binding buffer or binding buffer containing various amounts of peptide were added. The plates were incubated for 60 minutes at room temperature. The buffer was then withdrawn and the cells were frozen on dry ice, treated with 0.5 ml of 50 mM HCl, and refrozen. After the thawing, the lysate was diluted 30-fold in dH20 and an aliquot was analyzed for cAMP content by determined radioimmunoassay using unlabeled cAMP as a standard.
(§5) Experiments utilized COS-7 cells transfected with either the intact rat PTH-1 receptor (rWT-HA, FIG. 4A) or a truncated rat PTH-1 receptor with most of the amino-terminal extracellular domain deleted (rΔNt, FIG. 4B).

In experiment [3] the test system is truncated rat PTH-1 receptor (rΔNt). The description is as above. As to conditions: COS-7 cells, cAMP.
From the text: as §1, §2, §3, §4, §5

For `CCCC[C@H](NC(=O)[C@H](CCCNC(=N)N)NC(=O)[C@H](CCC(=O)O)NC(=O)[C@@H](NC(=O)[C@H](CO)NC(=O)[C@H](C)NC(=O)[C@H](CC(C)C)NC(=O)[C@H](Cc1c[nH]cn1)NC(=O)[C@H](CCCCN)NC(=O)CNC(=O)[C@H](CC(C)C)NC(=O)[C@H](CC(N)=O)NC(=O)[C@H](Cc1c[nH]cn1)NC(=O)[C@H](CCCC)NC(=O)[C@H](CC(C)C)NC(=O)[C@H](CCC(N)=O)NC(=O)[C@@H](NC(=O)[C@H](CCC(=O)O)NC(=O)[C@H](CO)NC(=O)[C@@H](NC(=O)[C@H](C)N)C(C)C)[C@@H](C)CC)C(C)C)C(=O)N[C@@H](CCC(N)=O)C(=O)N[C@@H](Cc1c[nH]c2ccccc12)C(=O)N[C@@H](CC(C)C)C(=O)N[C@@H](CCCNC(=N)N)C(=O)N[C@@H](CCCCN)C(=O)N[C@@H](CCCCN)C(=O)N[C@@H](CC(C)C)C(=O)N[C@@H](CCC(N)=O)C(=O)N[C@@H](CC(=O)O)C(=O)N[C@H](C(=O)N[C@@H](Cc1c[nH]cn1)C(=O)N[C@@H](CC(N)=O)C(=O)N[C@@H](Cc1ccc(O)cc1)C(N)=O)C(C)C` [PTH(1–34), [Nle^8,21,Tyr^34]rPTH-(1–34)NH2], the “cAMP responsiveness of parental LLC-PK1 cells” value in experiment [1] is listed as “unresponsive”. For the same molecule, the “greater potency with rΔNt in comparison to the potency of PTH(1–14)” value in experiment [2] (COS-7 cells, cAMP) turned out to be 100 fold. In experiment [2], the “cAMP response of cells expressing rΔNt (in words)” value is listed as “responded”. For the same molecule, the “decrease in potency with rΔNt as compared to potency with rWT-HA” value in experiment [3] came to 100 fold.
As for “PTH(1–14): Amino-terminal peptide fragment based on the rat PTH sequence, residues 1–14, C-terminally amidated (AVSEIQLMHNLGKH-NH2)”, in experiment [1], the “cAMP responsiveness of parental LLC-PK1 cells” value is “did not activate; also recorded: unresponsive”. For the same molecule, the “potency relative to PTH(1–34) with rΔNt” value in experiment [2] (COS-7 cells transfected with rΔNt) is “only two orders of magnitude weaker”. The “cAMP response of cells expressing rΔNt (in words)” value in experiment [2] is on record as “responded”. Further, the “potency/activity with rΔNt compared with rWT-HA (in words)” value in experiment [3] was “equipotent with the two receptors; also recorded: equivalent activity; also recorded: not affected”.
